Results taken from patent US11884647B2, “Compounds and methods for targeting pathogenic blood vessels” (THE REGENTS OF THE UNIVERSITY OF CALIFORNIA, priority 2019, dated 2024).

Experiments:
[1] = test system: tumor endothelial cells (CT26.CL25 colon cancer tumor); assay: Colon CT26 ex vivo model of tumor angiogenesis; type: cell-based; conditions: Mus musculus, CT26, 48 h, read-out: Cell death
How it was run: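 Explant pieces of CT26 tumor (about 0.075 mm^3) were embedded in Matrigel and grown in endothelial growth medium at 37 °C for about 7 days until endothelial outgrowth appeared, then treated. Cell death was read about 48 h after drug addition by fluorescein diacetate (live) and propidium iodide (dead) staining with red/green imaging.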

[2] = test system: tumor endothelial cells (LL/2 lung cancer tumor); assay: Lung LL2 ex vivo model of tumor angiogenesis; type: cell-based, mouse; conditions: for cytotoxicity at 40 µM / cytotoxicity at 20 µM: Mus musculus, Endothelial cell, 48 h, read-out: Cell death; for Cell death: Lung LL2 ex vivo, drug treatment two days
How it was run: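 Read-out is live/dead fluorescence imaging (fluorescein diacetate green, propidium iodide red, 10 min at 37° C) at 2×, taken e.g. 48 h after drug addition. Fragments of mouse LL2 tumor are cultured in Matrigel with endothelial growth medium, usually 4 days, until new endothelial cells grow out, then treated.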

| Compound | cytotoxicity at 40 µM [1] [%] | cytotoxicity at 40 µM [2] [%] | also measured |
| --- | --- | --- | --- |
| COc1ccc(S(=O)(=O)c2cnc3ccc(CC#N)cc3c2NN2CCN(C)CC2)cc1 [compound 99, 2-(3-((4-methoxyphenyl)sulfonyl)-4-((4-methylpiperazin-1-yl)amino)quinolin-6-yl)acetonitrile] | 0 | 10 |  |
| CCCCOc1ccc(S(=O)(=O)c2cnc3ccc(C(=O)OCC)cc3c2N2CCC(N3CCC(O)CC3)CC2)cc1 [compound 161, ethyl 3-((4-butoxyphenyl)sulfonyl)-4-(4-hydroxy-[1,4′-bipiperidin]-1′-yl)quinoline-6-carboxylate] | 100 | 90 |  |
| CCc1ccc(S(=O)(=O)c2cnc3ccc(OC(F)(F)F)cc3c2NCCO)cc1 [compound 95, 2-((3-((4-ethylphenyl)sulfonyl)-6-(trifluoromethoxy)quinolin-4-yl)amino)ethan-1-ol] | 0 | 10 |  |
| CCc1ccc(S(=O)(=O)c2cnc3ccc(OC(F)(F)F)cc3c2N2CCC3(CC2)OCCO3)cc1 [compound 52, 8-(3-((4-ethylphenyl)sulfonyl)-6-(trifluoromethoxy)quinolin-4-yl)-1,4-dioxa-8-azaspiro[4.5]decane] | 0 | 50 |  |
| CCc1ccc(S(=O)(=O)c2cnc3ccc(OC(F)(F)F)cc3c2N(C)Cc2ccccc2)cc1 [compound 49, N-benzyl-3-((4-ethylphenyl)sulfonyl)-N-methyl-6-(trifluoromethoxy)quinolin-4-amine] | 10 | 30 |  |
| O=[N+]([O-])c1ccc(S(=O)(=O)c2cnc3ccc(OC(F)(F)F)cc3c2N2CCC(O)CC2)cc1 [compound 61, 1-(3-((4-nitrophenyl)sulfonyl)-6-(trifluoromethoxy)quinolin-4-yl)piperidin-4-ol] | 20 | 50 |  |
| CCCCCCCOc1ccc(S(=O)(=O)c2cnc3ccc(SC)cc3c2N2CCCN(C)CC2)cc1 [compound 218, 3-((4-(heptyloxy)phenyl)sulfonyl)-4-(4-methyl-1,4-diazepan-1-yl)-6-(methylthio)quinoline] | 90 | 100 |  |
| CCN(CC)CCNC(=O)c1ccc2ncc(S(=O)(=O)c3ccc(OC)cc3)c(N3CCCN(C)CC3)c2c1 [compound 166, N-(2-(diethylamino)ethyl)-3-((4-methoxyphenyl)sulfonyl)-4-(4-methyl-1,4-diazepan-1-yl)quinoline-6-carboxamide] | 60 | 10 |  |
| CCCCCCCOc1ccc(S(=O)(=O)c2cnc3ccc([S+](C)[O-])cc3c2N2CCC(N3CCN(C)CC3)CC2)cc1 (stereo not drawn) [compound 253, 3-((4-(heptyloxy)phenyl)sulfonyl)-4-(4-(4-methylpiperazin-1-yl)piperidin-1-yl)-6-(methylsulfinyl)quinoline] |  |  | cytotoxicity at 10 µM [1]: 80%; cytotoxicity at 20 µM [2]: 100% |
| COc1ccc(S(=O)(=O)c2cnc3ccc(OC(F)(F)F)cc3c2NN2CCN(C)CC2)cc1 [compound 85, 3-((4-methoxyphenyl)sulfonyl)-N-(4-methylpiperazin-1-yl)-6-(trifluoromethoxy)quinolin-4-amine] | 50 | 80 |  |
| CCc1ccc(S(=O)(=O)c2cnc3ccc(OC(F)(F)F)cc3c2N2CCC(N3CCC(O)CC3)CC2)cc1 [compound 102, 1′-(3-((4-ethylphenyl)sulfonyl)-6-(trifluoromethoxy)quinolin-4-yl)-[1,4′-bipiperidin]-4-ol] | 5 |  | Cell death ([2]; Conc. 20 μm): 20% |
| CCc1ccc(S(=O)(=O)c2cnc3ccc([N+](=O)[O-])cc3c2N2CCC(N3CCCCC3)CC2)cc1 [compound 77, 4-([1,4′-bipiperidin]-1′-yl)-3-((4-ethylphenyl)sulfonyl)-6-nitroquinoline] | 40 | 80 |  |
| CCCCOc1ccc(S(=O)(=O)c2cnc3ccc([S+](C)[O-])cc3c2N2CCC(N3CCCC(O)C3)CC2)cc1 (stereo not drawn) [compound 208, 1′-(3-((4-butoxyphenyl)sulfonyl)-6-(methylsulfinyl)quinolin-4-yl)-[1,4′-bipiperidin]-3-ol] | 20 | 50 |  |
| CCCCCCCOc1ccc(S(=O)(=O)c2cnc3ccc([S+](C)[O-])cc3c2N2CCC(N3CCN(CCO)CC3)CC2)cc1 (stereo not drawn) [compound 257, 2-(4-(1-(3-((4-(heptyloxy)phenyl)sulfonyl)-6-(methylsulfinyl)quinolin-4-yl)piperidin-4-yl)piperazin-1-yl)ethan-1-ol] |  |  | cytotoxicity at 10 µM [1]: 100%; cytotoxicity at 20 µM [2]: 100% |
| COc1ccc(S(=O)(=O)c2cnc3ccc(OC(F)(F)F)cc3c2N(CCO)CCO)cc1OC [compound 72, 2,2′-((3-((3,4-dimethoxyphenyl)sulfonyl)-6-(trifluoromethoxy)quinolin-4-yl)azanediyl)bis(ethan-1-ol)] | 0 | 20 |  |
| CCCN(CCC)c1c(S(=O)(=O)c2ccc(OC)c(OC)c2)cnc2ccc(OC(F)(F)F)cc12 [compound 71, 3-((3,4-dimethoxyphenyl)sulfonyl)-N,N-dipropyl-6-(trifluoromethoxy)quinolin-4-amine] | 0 | 10 |  |
| CCc1ccc(S(=O)(=O)c2cnc3ccc(OC(F)(F)F)cc3c2-n2cncn2)cc1 [compound 51, 3-((4-ethylphenyl)sulfonyl)-4-(1H-1,2,4-triazol-1-yl)-6-(trifluoromethoxy)quinoline] | 20 | 100 |  |
| CCOC(=O)c1ccc2ncc(S(=O)(=O)c3ccc(CC)cc3)c(N3CCC(N4CCCCC4)CC3)c2c1 [compound 64, ethyl 4-([1,4′-bipiperidin]-1′-yl)-3-((4-ethylphenyl)sulfonyl)quinoline-6-carboxylate] | 100 | 100 |  |
| CCCCOc1ccc(S(=O)(=O)c2cnc3ccc(C(=O)OCC)cc3c2N2CCC(N3CCCCC3)CC2)cc1 [compound 157, ethyl 4-([1,4′-bipiperidin]-1′-yl)-3-((4-butoxyphenyl)sulfonyl)quinoline-6-carboxylate] | 60 | 100 |  |
| CCCCOc1ccc(S(=O)(=O)c2cnc3ccc(OC(F)(F)F)cc3c2-n2cncn2)cc1 [compound 93, 3-((4-butoxyphenyl)sulfonyl)-4-(1H-1,2,4-triazol-1-yl)-6-(trifluoromethoxy)quinoline] |  |  | cytotoxicity at 10 µM [1]: 100%; cytotoxicity at 20 µM [2]: 100% |
| CCc1ccc(S(=O)(=O)c2cnc3ccc(OC(F)(F)F)cc3c2N2CCN(c3ccc(C#N)cc3)CC2)cc1 [compound 45, 4-(4-(3-((4-ethylphenyl)sulfonyl)-6-(trifluoromethoxy)quinolin-4-yl)piperazin-1-yl)benzonitrile] | 0 |  | Cell death ([2]; Conc. 40 μm): 10% |
| CCCCOc1ccc(S(=O)(=O)c2cnc3ccc(SC)cc3c2N2CCC(N3CCCCC3)CC2)cc1 [compound 159, 4-([1,4′-bipiperidin]-1′-yl)-3-((4-butoxyphenyl)sulfonyl)-6-(methylthio)quinoline] | 100 | 100 |  |
| CCc1ccc(S(=O)(=O)c2cnc3ccc(OC(F)(F)F)cc3c2N2CCC(CO)CC2)cc1 [compound 48, (1-(3-((4-ethylphenyl)sulfonyl)-6-(trifluoromethoxy)quinolin-4-yl)piperidin-4-yl)methanol] | 10 | 60 |  |
| CCCCOc1ccc(S(=O)(=O)c2cnc3ccc(OC(F)(F)F)cc3c2N2CCC(N3CCC(O)CC3)CC2)cc1 [compound 152, 1′-(3-((4-butoxyphenyl)sulfonyl)-6-(trifluoromethoxy)quinolin-4-yl)-[1,4′-bipiperidin]-4-ol] | 30 |  | cytotoxicity at 20 µM [2]: 20% |
| CCc1ccc(S(=O)(=O)c2cnc3ccc(OC(F)(F)F)cc3c2-n2ccnc2)cc1 [compound 118, 3-((4-ethylphenyl)sulfonyl)-4-(1H-imidazol-1-yl)-6-(trifluoromethoxy)quinoline] |  |  | cytotoxicity at 20 µM [1]: 100%; cytotoxicity at 20 µM [2]: 100% |
| CCCCOc1ccc(S(=O)(=O)c2cnc3ccc([S+](C)[O-])cc3c2N2CCCN(CCN3CCCCC3)CC2)cc1 (stereo not drawn) [compound 209, 3-((4-butoxyphenyl)sulfonyl)-6-(methylsulfinyl)-4-(4-(2-(piperidin-1-yl)ethyl)-1,4-diazepan-1-yl)quinoline] | 90 | 60 |  |
| COc1ccc(S(=O)(=O)c2cnc3ccc([N+](=O)[O-])cc3c2NN2CCN(C)CC2)cc1 [compound 94, 3-((4-methoxyphenyl)sulfonyl)-N-(4-methylpiperazin-1-yl)-6-nitroquinolin-4-amine] | 0 | 20 |  |
| CCc1ccc(S(=O)(=O)c2cnc3ccc(C(=O)O)cc3c2N2CCC(O)CC2)cc1 [compound 65, 3-((4-ethylphenyl)sulfonyl)-4-(4-hydroxypiperidin-1-yl)quinoline-6-carboxylic acid] | 0 | 10 |  |
| CCc1ccc(S(=O)(=O)c2cnc3ccc(OC(F)(F)F)cc3c2-n2cnc(C)c2)cc1 [compound 117, 3-((4-ethylphenyl)sulfonyl)-4-(4-methyl-1H-imidazol-1-yl)-6-(trifluoromethoxy)quinoline] |  |  | cytotoxicity at 20 µM [1]: 100%; cytotoxicity at 20 µM [2]: 100% |
| COc1ccc(S(=O)(=O)c2cnc3ccc(OC(F)(F)F)cc3c2N2CCC(N3CCCCC3)CC2)cc1OC [compound 56, 4-([1,4′-bipiperidin]-1′-yl)-3-((3,4-dimethoxyphenyl)sulfonyl)-6-(trifluoromethoxy)quinoline] | 30 | 20 |  |
